The record followed here is patent US20080318945A1, “Novel Compounds” (priority 2005, published 2008).

pEC50: −log10 of the molar value. A value given as a limit tells only on which side of the number the result lay.

Experiment [1] deals with T1, TRPV4 channel receptors (Bos taurus, UniProt A0A8F4X677).
T1 construct: obtained using this method in bovine articular chondrocytes; endogenous in cells; host or cells: bovine articular chondrocytes
Description: Ca2+ influx by Fura-2 fluorescence on FlexStation in bovine articular chondrocytes. In kind it is cell-based. An excerpt: Ca^2+ influx mediated through TRPV4 channel receptors can be measured using articular chondrocytes from such species as, but not limited to, human, rat, canine, rabbit, monkey, and bovine, using standard techniques in the art such as, but not limited to, Fura-2 (Invitrogen/Molecular Probes, Eugene, Oreg.) fluorescence using a FlexStation (manufactured by Molecular Devices, Sunnyvale, Calif.). Table 1 lists biological data for several representative compounds obtained using this method in bovine articular chondrocytes.
(§1) All exemplary compounds of the present invention were assessed using at least one of the biological assays presented above. Compounds presented in the Examples had EC50 values of about 0.0001 μM to 1 μM as measured by Flex Station using bovine articular chondrocytes and pEC50 values between about 6.0 to 9.1 as measured by FLIPR assay using TRPV4 expressing HEK cells.

The target in experiment [2] is T2, TRPV4 channel receptor (Homo sapiens, UniProt Q9HBA0).
T2 construct: expressed in transfected cells; host or cells: HEK cells
Description: FLIPR assay using TRPV4 expressing HEK cells. In kind it is cell-based. The note with it: FLIPR method; read-out: pEC50 values (converted).
Source text: Other techniques used to measure TRPV4 channel receptor activation in chondrocytes include, but are not limited to: FLIPR assay, measuring a compound's capability to reduce the amount of ADAMTSs produced and/or released in response to a catabolic stimulus by a cell comprising a TRPV4 channel receptor; measuring a compound's capability to reduce the amount of MMPs produced and/or released in response to a catabolic stimulus by a cell comprising a TRPV4 channel receptor; measuring a compound's capability to effect the amount of nitric oxide (NO) produced in response to a catabolic stimulus by a cell comprising a TRPV4 channel receptor; and measuring a compound's capability to attenuate the inhibition of matrix synthesis in response to a catabolic stimulus by a cell comprising a TRPV4 channel receptor.
as §1

As a reminder, the pEC50 is −log10 of the EC50, conventionally taken in molar units. The low end stands for a high EC50, the high end for a low EC50.

T1 sequence (A0A8F4X677 1-871): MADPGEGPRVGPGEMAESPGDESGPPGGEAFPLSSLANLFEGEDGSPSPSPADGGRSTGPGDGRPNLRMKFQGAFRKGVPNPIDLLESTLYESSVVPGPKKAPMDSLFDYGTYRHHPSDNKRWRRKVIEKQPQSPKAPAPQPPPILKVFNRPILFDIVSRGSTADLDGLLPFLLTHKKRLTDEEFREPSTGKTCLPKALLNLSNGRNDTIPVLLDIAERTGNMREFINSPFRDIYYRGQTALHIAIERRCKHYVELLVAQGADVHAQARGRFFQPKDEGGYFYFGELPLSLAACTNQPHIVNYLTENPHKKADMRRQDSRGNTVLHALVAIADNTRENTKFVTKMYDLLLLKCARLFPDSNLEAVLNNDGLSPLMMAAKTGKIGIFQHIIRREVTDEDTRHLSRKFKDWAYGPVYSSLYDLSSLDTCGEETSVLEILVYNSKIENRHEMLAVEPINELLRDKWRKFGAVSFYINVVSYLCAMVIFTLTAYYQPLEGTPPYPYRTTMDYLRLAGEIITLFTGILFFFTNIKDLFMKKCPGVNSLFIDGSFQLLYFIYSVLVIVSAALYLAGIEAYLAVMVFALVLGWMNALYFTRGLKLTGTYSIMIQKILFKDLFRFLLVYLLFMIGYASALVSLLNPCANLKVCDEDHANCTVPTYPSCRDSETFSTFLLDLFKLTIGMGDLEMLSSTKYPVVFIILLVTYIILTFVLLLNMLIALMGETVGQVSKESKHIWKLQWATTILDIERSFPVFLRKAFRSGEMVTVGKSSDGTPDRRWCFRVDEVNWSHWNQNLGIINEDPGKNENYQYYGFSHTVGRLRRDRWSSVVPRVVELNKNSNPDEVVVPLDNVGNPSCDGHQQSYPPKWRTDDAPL
T2 sequence (Q9HBA0 whole entry): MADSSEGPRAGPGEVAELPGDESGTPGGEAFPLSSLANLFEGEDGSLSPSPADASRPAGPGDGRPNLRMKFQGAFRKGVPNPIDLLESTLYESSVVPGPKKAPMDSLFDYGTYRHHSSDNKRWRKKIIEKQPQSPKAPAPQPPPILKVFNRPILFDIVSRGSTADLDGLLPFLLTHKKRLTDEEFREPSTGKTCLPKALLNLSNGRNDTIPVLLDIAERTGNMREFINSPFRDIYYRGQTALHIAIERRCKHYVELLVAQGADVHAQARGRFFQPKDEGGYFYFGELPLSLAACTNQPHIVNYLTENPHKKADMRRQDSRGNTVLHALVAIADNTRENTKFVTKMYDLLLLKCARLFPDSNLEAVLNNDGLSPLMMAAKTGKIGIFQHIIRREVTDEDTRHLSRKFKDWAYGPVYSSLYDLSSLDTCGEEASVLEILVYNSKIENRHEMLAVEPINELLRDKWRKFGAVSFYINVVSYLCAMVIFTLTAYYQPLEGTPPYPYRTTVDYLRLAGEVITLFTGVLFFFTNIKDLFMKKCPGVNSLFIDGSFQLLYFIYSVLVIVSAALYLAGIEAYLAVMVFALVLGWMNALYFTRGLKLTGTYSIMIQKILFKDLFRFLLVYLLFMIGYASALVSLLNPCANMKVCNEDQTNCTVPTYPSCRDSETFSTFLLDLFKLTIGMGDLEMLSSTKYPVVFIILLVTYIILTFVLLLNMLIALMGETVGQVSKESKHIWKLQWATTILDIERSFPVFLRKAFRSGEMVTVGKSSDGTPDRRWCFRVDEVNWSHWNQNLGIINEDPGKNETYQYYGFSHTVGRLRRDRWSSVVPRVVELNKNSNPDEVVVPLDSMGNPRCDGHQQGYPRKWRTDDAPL

On to `CC(C)C[C@H](NC(=O)c1cc2ccccc2s1)C(=O)N1CCN(CCNS(=O)(=O)c2ccc(Cl)cc2Cl)CC1` [Example 1, N-((1S)-1-{[4-(2-{[(2,4-Dichlorophenyl)sulfonyl]amino}ethyl)-1-piperazinyl]carbonyl}-3-methylbutyl)-1-benzothiophene-2-carboxamide], for which, in experiment [1], the negative-log EC50 (pEC50) was 5.30 to 7.05. The EC50 in experiment [2] was 100 to 794 nM.
The corresponding values for `CC(C)C[C@H](NC(=O)c1cc2ccccc2s1)C(=O)N1CCN(C(=O)[C@H](C)NS(=O)(=O)c2ccc(Cl)cc2Cl)CC1` [Example 9, N-((1S)-1-{[4-((2S)-2-{[(2,4-dichlorophenyl)sulfonyl]amino}propanoyl)-1-piperazinyl]carbonyl}-3-methylbutyl)-1-benzothiophene-2-carboxamide] are 7.72 to 10.00 and below 7.94 nM.
The matching figures for `CC(C)C[C@H](NC(=O)c1cc2ccccc2s1)C(=O)N1CCN(C(=O)CNS(=O)(=O)c2ccc(Cl)cc2Cl)CC1` [Example 3, N-((1S)-1-{[4-({[(2,4-Dichlorophenyl)sulfonyl]amino}acetyl)-1-piperazinyl]carbonyl}-3-methylbutyl)-1-benzothiophene-2-carboxamide]: 7.05 to 7.70 and 10 to 79.4 nM.
